# Assays:
# [1] = molecular target: T1, NDM-1 (Klebsiella pneumoniae, UniProt C7C422); test: biochemical; settings: cleavage of imipenem (100 uM) by NDM-1; read-out: Ki, Imipenem
# [2] = molecular target: T2, VIM-1 (Pseudomonas aeruginosa, UniProt A0A0F7KYQ8); test: biochemical; settings: cleavage of nitrocefin (200 uM) by VIM-1 supernatant
# T2 construct: made in house; host or cells: ECM6711 strain carrying pUCP24-VIM-1 plasmid; culture supernatant used unpurified
# [3] = molecular target: OXA-48 (Klebsiella pneumoniae, UniProt Q6XEC0); test: Inhibition of purified class D carbapenemase OXA-48 (Ki, carbapenem substrates); type: biochemical; settings: purified OXA-48, substrate biapenem; read-out: Ki OXA-48, Biapenem
# [4] = molecular target: T3, purified class A, C and D enzymes (UniProt P0AD64, L31Q/G234S/E235K, species not given); type: biochemical; settings: read-out: Ki (SHV-12, NCF); purified SHV-12; nitrocefin reporter substrate
# T3 construct: Ki (SHV-12, NCF); other: purified SHV-12; nitrocefin reporter substrate
# T3 sequence (P0AD64 1-286 L31Q/G234S/E235K): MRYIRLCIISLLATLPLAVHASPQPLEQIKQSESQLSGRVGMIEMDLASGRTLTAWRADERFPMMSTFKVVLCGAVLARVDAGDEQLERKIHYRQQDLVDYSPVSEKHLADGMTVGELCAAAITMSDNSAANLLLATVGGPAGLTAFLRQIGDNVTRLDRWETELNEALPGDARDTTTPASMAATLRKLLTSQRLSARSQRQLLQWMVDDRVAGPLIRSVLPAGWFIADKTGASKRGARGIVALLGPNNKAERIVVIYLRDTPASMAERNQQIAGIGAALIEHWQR
# [5] = molecular target: T4, purified class A, C and D enzymes (UniProt Q6XEC0); type: biochemical; settings: read-out: Ki (OXA-48, NCF); purified OXA-48; nitrocefin reporter substrate
# T4 construct: rows headed: Ki (OXA-48, NCF); other: purified OXA-48; nitrocefin reporter substrate
# [6] = molecular target: T5, purified class A, C and D enzymes (UniProt Q9F663); type: biochemical; settings: read-out: Ki (KPC-2, NCF); purified KPC-2; nitrocefin reporter substrate
# T5 construct: rows headed: Ki (KPC-2, NCF); other: purified KPC-2; nitrocefin reporter substrate
# [7] = molecular target: T1, NDM-1; test: Inhibition of purified class B carbapenemase NDM-1 (Ki, imipenem substrate); type: biochemical; settings: NDM-1, substrate imipenem; read-out: Ki NDM-1, Imipenem
# [8] = molecular target: purified class A, C and D enzymes (Enterobacter cloacae, UniProt P05364); type: biochemical; settings: purified P99/AmpC of ECL; nitrocefin reporter substrate
# [9] = molecular target: purified class A, C and D enzymes (Escherichia coli, UniProt Q9L5C7); type: biochemical; settings: purified CTX-M-14; nitrocefin reporter substrate
# [10] = test system: strains of Enterobacteriaceae producing various carbapenemases (class A, D and B; 169 strains); test: Meropenem or tebipenem potentiation by Compounds 97 or 62 (MIC); type: cell-based; settings: Compound 97 at a fixed concentration of 8 μg/ml
# Description: The largest panel of clinical isolates expressing class A, D and B carbapenemases alone or in combination with other beta-lactamases (169 strains) was used to evaluate carbapenem potentiation activity of Compounds 97 and 62. MIC for meropenem and tebipenem of these strains were determined either alone or in the presence of Compounds 97 or 62, respectively, at a fixed concentration of 8 μg/ml in the growth media.
# Chain of purified class A, C and D enzymes (Enterobacter cloacae, UniProt P05364) (P05364 21-381): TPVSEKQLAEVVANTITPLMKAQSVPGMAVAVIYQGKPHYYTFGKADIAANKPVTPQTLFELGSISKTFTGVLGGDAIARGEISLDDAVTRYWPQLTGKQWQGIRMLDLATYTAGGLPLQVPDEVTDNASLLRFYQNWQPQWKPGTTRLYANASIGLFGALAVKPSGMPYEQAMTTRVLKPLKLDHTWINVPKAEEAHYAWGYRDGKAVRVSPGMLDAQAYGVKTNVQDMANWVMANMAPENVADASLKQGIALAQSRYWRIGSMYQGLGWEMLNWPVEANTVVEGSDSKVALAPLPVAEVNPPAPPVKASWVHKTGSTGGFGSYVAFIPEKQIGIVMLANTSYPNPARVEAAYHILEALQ
# T1 sequence (C7C422 29-270, looked up, species assumed): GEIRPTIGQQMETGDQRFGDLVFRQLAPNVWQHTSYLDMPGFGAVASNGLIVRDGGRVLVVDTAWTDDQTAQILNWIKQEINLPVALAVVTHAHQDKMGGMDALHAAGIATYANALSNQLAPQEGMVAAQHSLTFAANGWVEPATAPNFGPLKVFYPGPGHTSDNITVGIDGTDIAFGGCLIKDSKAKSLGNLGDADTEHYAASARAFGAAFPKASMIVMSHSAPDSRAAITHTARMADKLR
# Chain of purified class A, C and D enzymes (Escherichia coli, UniProt Q9L5C7) (Q9L5C7 entry or part of it): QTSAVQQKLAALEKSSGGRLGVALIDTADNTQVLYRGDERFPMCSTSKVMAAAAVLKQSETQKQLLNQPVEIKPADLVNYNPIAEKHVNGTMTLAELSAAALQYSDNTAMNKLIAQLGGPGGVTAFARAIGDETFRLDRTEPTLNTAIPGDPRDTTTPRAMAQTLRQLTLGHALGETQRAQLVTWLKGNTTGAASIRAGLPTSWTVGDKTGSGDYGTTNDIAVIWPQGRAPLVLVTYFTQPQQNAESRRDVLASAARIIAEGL
# Chain of OXA-48 (Q6XEC0 23-265, looked up): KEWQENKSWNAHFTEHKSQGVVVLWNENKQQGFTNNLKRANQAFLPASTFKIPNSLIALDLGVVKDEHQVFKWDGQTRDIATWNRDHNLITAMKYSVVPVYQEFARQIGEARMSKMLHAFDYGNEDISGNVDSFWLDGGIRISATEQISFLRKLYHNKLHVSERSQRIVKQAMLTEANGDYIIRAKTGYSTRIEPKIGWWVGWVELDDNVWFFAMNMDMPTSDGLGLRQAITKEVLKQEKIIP
smiles,measurement,setting,value
"CS[C@H]1Cc2cccc(C(=O)O)c2OB1O [Compound 16, (R)-2-hydroxy-3-(methylthio)-3,4-dihydro-2H-benzo[e][1,2]oxaborinine-8-carboxylic acid]",Ki,[1],< 10 nM
same,IC50,[2],< 1000 nM
same,Ki,[3],< 10 nM
same,Ki,[4],100 to 1000 nM
same,Ki,[5],< 100 nM
same,Ki,[6],< 100 nM
"CCOc1ccc2c(c1C(=O)O)OB(O)[C@@H](Sc1nnc(NC3CNC3)s1)C2 [Compound 118, (3R)-3-[[5-(azetidin-3-ylamino)-1,3,4-thiadiazol-2-yl]sulfanyl]-7-ethoxy-2-hydroxy-3,4-dihydro-1,2-benzoxaborinine-8-carboxylic acid]",Ki,[1],> 100 nM
same,IC50,[2],< 1000 nM
same,Ki,[7],> 100 nM
same,"Ki (P99/AmpC of ECL, NCF)",[8],Y (0.1 μM to 1 μM)
same,"Ki (CTX-M-14, NCF)",[9],X (Less than 0.1 μM)
same,Ki,[4],< 100 nM
same,Ki,[5],< 100 nM
same,Ki,[6],100 to 1000 nM
"O=CNc1cnc(S[C@H]2Cc3ccc(F)c(C(=O)O)c3OB2O)s1 [Compound 58, (3R)-7-fluoro-3-(5-formamidothiazol-2-yl)sulfanyl-2-hydroxy-3,4-dihydro-1,2-benzoxaborinine-8-carboxylic acid]",Ki,[1],> 100 nM
same,IC50,[2],< 1000 nM
same,Ki,[7],> 100 nM
same,"Ki (P99/AmpC of ECL, NCF)",[8],Y (0.1 μM to 1 μM)
same,"Ki (CTX-M-14, NCF)",[9],X (Less than 0.1 μM)
same,Ki,[4],< 100 nM
same,Ki,[5],< 100 nM
same,Ki,[6],100 to 1000 nM
"NCc1cnc(S[C@H]2Cc3ccc(F)c(C(=O)O)c3OB2O)s1 [Compound 57, (3R)-3-[5-(aminomethyl)thiazol-2-yl]sulfanyl-7-fluoro-2-hydroxy-3,4-dihydro-1,2-benzoxaborinine-8-carboxylic acid]",Ki,[1],10 to 100 nM
same,IC50,[2],< 1000 nM
same,Ki,[7],10 to 100 nM
same,"Ki (P99/AmpC of ECL, NCF)",[8],Z (Greater than 1 μM)
same,"Ki (CTX-M-14, NCF)",[9],X (Less than 0.1 μM)
same,Ki,[4],< 100 nM
same,Ki,[5],< 100 nM
same,Ki,[6],100 to 1000 nM
"O=C(O)c1c(F)ccc2c1OB(O)[C@@H](SC1CNC1)C2 [Compound 46, (R)-3-(azetidin-3-ylthio)-7-fluoro-2-hydroxy-3,4-dihydro-2H-benzo[e][1,2]oxaborinine-8-carboxylic acid]",Ki,[1],> 100 nM
same,IC50,[2],≥ 1000 nM
same,Ki,[7],> 100 nM
same,"Ki (P99/AmpC of ECL, NCF)",[8],Z (Greater than 1 μM)
same,"Ki (CTX-M-14, NCF)",[9],X (Less than 0.1 μM)
same,Ki,[4],< 100 nM
same,Ki,[5],< 100 nM
same,Ki,[6],100 to 1000 nM
"COc1ccc2c(c1C(=O)O)OB(O)[C@@H](Sc1nnc(NC3CNC3)s1)C2 [Compound 96, (3R)-3-[[5-(azetidin-3-ylamino)-1,3,4-thiadiazol-2-yl]sulfanyl]-2-hydroxy-7-methoxy-3,4-dihydro-1,2-benzoxaborinine-8-carboxylic acid]",Ki,[1],< 10 nM
same,IC50,[2],< 1000 nM
same,Ki,[7],< 10 nM
same,"Ki (P99/AmpC of ECL, NCF)",[8],Y (0.1 μM to 1 μM)
same,"Ki (CTX-M-14, NCF)",[9],X (Less than 0.1 μM)
same,Ki,[4],< 100 nM
same,Ki,[5],< 100 nM
same,Ki,[6],100 to 1000 nM
"COc1ccc2c(c1C(=O)O)OB(O)[C@@H](Sc1c[nH]nn1)C2 [Compound 39, (R)-3-(1H-1,2,3-triazol-4-ylthio)-2-hydroxy-7-methoxy-3,4-dihydro-2H-benzo[e][1,2]oxaborinine-8-carboxylic acid]",Ki,[1],> 100 nM
same,IC50,[2],< 1000 nM
same,Ki,[7],> 100 nM
same,"Ki (P99/AmpC of ECL, NCF)",[8],Y (0.1 μM to 1 μM)
same,"Ki (CTX-M-14, NCF)",[9],X (Less than 0.1 μM)
same,Ki,[4],< 100 nM
same,Ki,[5],< 100 nM
same,Ki,[6],< 100 nM
"NC(=O)c1cnc(S[C@H]2Cc3ccc(F)c(C(=O)O)c3OB2O)s1 [Compound 53, (3R)-3-(5-carbamoylthiazol-2-yl)sulfanyl-7-fluoro-2-hydroxy-3,4-dihydro-1,2-benzoxaborinine-8-carboxylic acid]",Ki,[1],> 100 nM
same,IC50,[2],< 1000 nM
same,Ki,[7],> 100 nM
same,"Ki (P99/AmpC of ECL, NCF)",[8],Y (0.1 μM to 1 μM)
same,"Ki (CTX-M-14, NCF)",[9],X (Less than 0.1 μM)
same,Ki,[4],< 100 nM
same,Ki,[5],< 100 nM
same,Ki,[6],< 100 nM
"O=C(O)c1c(F)ccc2c1OB(O)[C@@H](Sc1nnc(C(F)(F)F)s1)C2 [Compound 55, (3R)-7-fluoro-2-hydroxy-3-[[5-(trifluoromethyl)-1,3,4-thiadiazol-2-yl]sulfanyl]-3,4-dihydro-1,2-benzoxaborinine-8-carboxylic acid]",Ki,[1],> 100 nM
same,IC50,[2],≥ 1000 nM
same,Ki,[7],> 100 nM
same,"Ki (P99/AmpC of ECL, NCF)",[8],Y (0.1 μM to 1 μM)
same,"Ki (CTX-M-14, NCF)",[9],Y (0.1 μM to 1 μM)
same,Ki,[4],100 to 1000 nM
same,Ki,[5],< 100 nM
same,Ki,[6],100 to 1000 nM
"CSc1ccc2c(c1C(=O)O)OB(O)[C@@H](Sc1nncn1C)C2 [Compound 29, (R)-2-hydroxy-3-(4-methyl-4H-1,2,4-triazol-3-ylthio)-7-(methylthio)-3,4-dihydro-2H-benzo[e][1,2]oxaborinine-8-carboxylic acid]",Ki,[1],10 to 100 nM
same,IC50,[2],< 1000 nM
same,Ki,[7],10 to 100 nM
same,"Ki (P99/AmpC of ECL, NCF)",[8],Y (0.1 μM to 1 μM)
same,"Ki (CTX-M-14, NCF)",[9],X (Less than 0.1 μM)
same,Ki,[4],< 100 nM
same,Ki,[5],< 100 nM
same,Ki,[6],100 to 1000 nM
"COc1ccc2c(c1C(=O)O)OB(O)[C@@H](Sc1nnc(OCCN)s1)C2 [Compound 117, (3R)-3-[[5-(2-aminoethoxy)-1,3,4-thiadiazol-2-yl]sulfanyl]-2-hydroxy-7-methoxy-3,4-dihydro-1,2-benzoxaborinine-8-carboxylic acid]",Ki,[1],< 10 nM
same,IC50,[2],< 1000 nM
same,Ki,[7],< 10 nM
same,"Ki (P99/AmpC of ECL, NCF)",[8],Y (0.1 μM to 1 μM)
same,"Ki (CTX-M-14, NCF)",[9],X (Less than 0.1 μM)
same,Ki,[4],< 100 nM
same,Ki,[5],< 100 nM
same,Ki,[6],100 to 1000 nM
"COc1ccc2c(c1C(=O)O)OB(O)[C@@H](Sc1nnc(SC(CN)CN)s1)C2 [Compound 109, (3R)-3-[[5-[2-amino-1-(aminomethyl)ethyl]sulfanyl-1,3,4-thiadiazol-2-yl]sulfanyl]-2-hydroxy-7-methoxy-3,4-dihydro-1,2-benzoxaborinine-8-carboxylic acid]",Ki,[1],< 10 nM
same,IC50,[2],< 1000 nM
same,Ki,[7],< 10 nM
same,"Ki (P99/AmpC of ECL, NCF)",[8],Y (0.1 μM to 1 μM)
same,"Ki (CTX-M-14, NCF)",[9],X (Less than 0.1 μM)
same,Ki,[4],< 100 nM
same,Ki,[5],< 100 nM
same,Ki,[6],100 to 1000 nM
"COc1ccc2c(c1C(=O)O)OB(O)[C@@H](Sc1nnc(NCCNC3CNC3)s1)C2 [Compound 105, (3R)-3-[[5-[2-(azetidin-3-ylamino)ethylamino]-1,3,4-thiadiazol-2-yl]sulfanyl]-2-hydroxy-7-methoxy-3,4-dihydro-1,2-benzoxaborinine-8-carboxylic acid]",Ki,[1],< 10 nM
same,IC50,[2],< 1000 nM
same,Ki,[7],< 10 nM
same,"Ki (P99/AmpC of ECL, NCF)",[8],Y (0.1 μM to 1 μM)
same,"Ki (CTX-M-14, NCF)",[9],X (Less than 0.1 μM)
same,Ki,[4],< 100 nM
same,Ki,[5],< 100 nM
same,Ki,[6],100 to 1000 nM
"COc1ccc2c(c1C(=O)O)OB(O)[C@@H](Sc1nnc(N(CCN)CCN)s1)C2 [Compound 101, (3R)-3-[[5-[bis(2-aminoethyl)amino]-1,3,4-thiadiazol-2-yl]sulfanyl]-2-hydroxy-7-methoxy-3,4-dihydro-1,2-benzoxaborinine-8-carboxylic acid]",Ki,[1],< 10 nM
same,IC50,[2],< 1000 nM
same,Ki,[7],< 10 nM
same,"Ki (P99/AmpC of ECL, NCF)",[8],Z (Greater than 1 μM)
same,"Ki (CTX-M-14, NCF)",[9],X (Less than 0.1 μM)
same,Ki,[4],< 100 nM
same,Ki,[5],< 100 nM
same,Ki,[6],100 to 1000 nM
"COc1ccc2c(c1C(=O)O)OB(O)[C@@H](Sc1nnc(NCCN)s1)C2 [Compound 97, (3R)-3-[[5-(2-aminoethylamino)-1,3,4-thiadiazol-2-yl]sulfanyl]-2-hydroxy-7-methoxy-3,4-dihydro-1,2-benzoxaborinine-8-carboxylic acid]",Ki,[1],< 10 nM
same,IC50,[2],< 1000 nM
same,Ki,[7],< 10 nM
same,"Ki (P99/AmpC of ECL, NCF)",[8],Y (0.1 μM to 1 μM)
same,"Ki (CTX-M-14, NCF)",[9],X (Less than 0.1 μM)
same,Ki,[4],< 100 nM
same,Ki,[5],< 100 nM
same,Ki,[6],100 to 1000 nM
same,meropenem MIC,[10],significantly reduced

# — patent US10206937B2, “Boronic acid derivatives and therapeutic uses thereof” (Qpex Biopharma, Inc., priority 2014, dated 2019)
